Data: US20250129021A1, “SMALL MOLECULE PROTEIN SYNTHESIS MODULATORS” (Interdict Bio, Inc., priority 2023, published 2025)

Key:
Format in all cases: biochemical
[1] = system: CCND1; assay: In vitro transcription-translation (IVTT) assay, CCND1 reporter; details: IVTT assay, HeLa S3 lysate, sfGFP/mCherry ratio
In short: (§1)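 Reporter: mCherry, P2A, then 3×FLAG-target peptide-sfGFP fusion, IRES-initiated; HeLa S3 lysate IVTT; cpd dilutions 30 μM−0.1 μM half-log in 100% DMSO (dilution-plate conc); DNA added last; 2 h, 30° C; PBS quench.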

[2] = system: MCL-1; assay: In vitro transcription-translation (IVTT) assay, MCL-1 reporter; details: IVTT assay, HeLa S3 lysate, sfGFP/mCherry ratio; read-out: MCL1 IC50
In short: as §1

[3] = system: CCNTB1; assay: In vitro transcription-translation (IVTT) assay, CCNTB1 reporter; details: HeLa S3 lysate, sfGFP/mCherry ratio
Method: In vitro transcription-translation assay setup: Each assay includes a master mix containing lysate and shared components, a 96-well plate containing compound titrations for testing, a 96-well DNA plate with reporter constructs to be tested, 96-well skirted PCR plates, and 96-well flat-bottom, black, fluorescent assay plates. Reaction materials setup: (A) Master mix—15 mL conical tube (3 mL of HeLa S3 Lysate described above; 0.6 mL of ThermoFisher Accessory Proteins (#88882); 1.2 ml of ThermoFisher Reaction Mix (#88882); 0.54 mL of nuclease-free Water); (B) 96-Well Master Mix+Compound Plate (Half-log dilutions (30 μM−0.1 μM) of 4 compounds of interest are prepared in 100% DMSO); 96-Well DNA Plate (Five DNA constructs are plated into single columns within the plate. Row 1 of the column contains nuclease free H2O, all other wells contain 110 ng/μL plasmid DNA). Reactions are started by mixing 155 μL of master mix and 3.5 μL of compound serial dilutions, then 9.1 μL of master mix+compound mixture is aliquoted across 5 96-well plates. Reactions begin with final addition of 2 μL of DNA for a 11.1 μL reaction volume in each well. The entire plate is sealed, and incubated for 2 hrs at 30° C. After 2 hrs, quench the assay using 45 μL of PBS, and transfer 50 μL to a flat-bottom black microplate Quantify the sfGFP and mCherry signals from each well on each plate, taking 3 reads of each plate, and perform data analysis below.
In vitro transcription-translation assay data analysis: Each plate is read three times in channels for both sfGFP and mCherry signals. The average signal across these 3 reads is then calculated for further analysis. Control wells containing no DNA reporter are subtracted from reporter wells in the same column to remove auto-fluorescence of the lysate. Then, the ratio of sfGFP/mCherry is calculated per well, and these ratios are averaged across the triplicate experiments on the same plate. Finally, the ratio of each titration concentration is normalized to the no drug control to create the normalized stalling metric. The error on this measurement is determined by propagating error through the averaging and normalization steps. Values are plotted and fit for IC50 determination for each test sequence and titration of compound.

[4] = system: MYC; assay: In vitro transcription-translation (IVTT) assay, MYC reporter; details: IVTT assay, HeLa S3 lysate, MYC reporter, normalized sfGFP/mCherry ratio; half-log dilutions 30 μM-0.1 μM, 2 hrs at 30° C.
In short: as §1

| SMILES | IC50 [1] [µM] | IC50 [2] [µM] | IC50 [3] [µM] | IC50 [4] [µM] |
| --- | --- | --- | --- | --- |
| COc1ccc(C[C@H]2NC[C@H](O)[C@H]2OC(=O)NCc2ccc(C3(N)CC3)cc2)cc1 [V192069, (2R,3S,4S)-4-hydroxy-2-[(4-methoxyphenyl)methyl]pyrrolidin-3-yl N-{[4-(1-aminocyclopropyl)phenyl]methyl}carbamate] | < 10 | < 10 | < 10 | < 10 |
| O=C(NCc1cccc(F)c1)O[C@@H]1[C@@H](O)CN[C@@H]1Cc1cccnc1 [V190519, (2R,3S,4S)-4-hydroxy-2-(pyridin-3-ylmethyl)pyrrolidin-3-yl N-[(3-fluorophenyl)methyl]carbamate] | > 30 | > 30 | 20 to 30 | 20 to 30 |
| O=C(NCc1cccc(-n2ccnc2)c1)O[C@@H]1[C@@H](O)CN[C@@H]1Cc1ccc(-c2cnco2)cc1 [V192167, (2R,3S,4S)-4-hydroxy-2-{[4-(1,3-oxazol-5-yl)phenyl]methyl}pyrrolidin-3-yl N-{[3-(imidazol-1-yl)phenyl]methyl}carbamate] | < 10 | < 10 | < 10 | < 10 |
| COc1ccc(C[C@H]2NC[C@H](O)[C@H]2OC(=O)NCC[C@H]2CCCNC2)cc1 [V192046, (2R,3S,4S)-4-hydroxy-2-[(4-methoxyphenyl)methyl]pyrrolidin-3-yl N-{2-[(3R)-piperidin-3-yl]ethyl}carbamate] | 10 to 20 | < 10 | < 10 | < 10 |
| O=C(NCCC1CCNCC1)O[C@@H]1[C@@H](O)CN[C@@H]1Cc1ccc(-c2ccc(C(F)(F)F)cc2)cc1 [V192052, (2R,3S,4S)-4-hydroxy-2-{[4′-(trifluoromethyl)-[1,1′-biphenyl]-4-yl]methyl}pyrrolidin-3-yl N-[2-(piperidin-4-yl)ethyl]carbamate] | > 30 | > 30 | > 30 | > 30 |
| O=C(NCCC1CCNCC1)O[C@@H]1[C@@H](O)CN[C@@H]1Cc1ccc(-c2ccc3c(c2)CC(F)(F)C3)cc1 [V192053, (2R,3S,4S)-2-{[4-(2,2-difluoro-1,3-dihydroinden-5-yl)phenyl]methyl}-4-hydroxypyrrolidin-3-yl N-[2-(piperidin-4-yl)ethyl]carbamate] | > 30 | 20 to 30 | 10 to 20 | > 30 |
| O=C(NCc1ccc2c(c1)CCNC2)O[C@@H]1[C@@H](O)CN[C@@H]1Cc1ccc(-c2ccc(S(F)(F)(F)(F)F)cc2)cc1 [V192059, (2R,3S,4S)-4-hydroxy-2-{[4′-(pentafluoro-lambda6-sulfanyl)-[1,1′-biphenyl]-4-yl]methyl}pyrrolidin-3-yl N-(1,2,3,4-tetrahydroisoquinolin-6-ylmethyl)carbamate] | > 30 | > 30 | > 30 | > 30 |
| O=C(NCC[C@@H]1CCCN1)O[C@@H]1[C@@H](O)CN[C@@H]1Cc1ccc(-c2cncs2)cc1 [V192113, (2R,3S,4S)-4-hydroxy-2-{[4-(1,3-thiazol-5-yl)phenyl]methyl}pyrrolidin-3-yl N-{2-[(2S)-pyrrolidin-2-yl]ethyl}carbamate] | < 10 | < 10 | < 10 | < 10 |
| O=C(NCC(F)F)O[C@@H]1[C@@H](O)CN[C@@H]1Cc1ccc(-c2cnco2)cc1 [V192264, (2R,3S,4S)-4-hydroxy-2-(4-(oxazol-5-yl)benzyl)pyrrolidin-3-yl (2,2-difluoroethyl)carbamate] | < 10 | < 10 | < 10 | < 10 |
| COc1ccc(C[C@H]2NC[C@H](O)[C@H]2OC(=O)NCC[C@H]2CCCN2C)cc1 [V192042, (2R,3S,4S)-4-hydroxy-2-[(4-methoxyphenyl)methyl]pyrrolidin-3-yl N-{2-[(2R)-1-methylpyrrolidin-2-yl]ethyl}carbamate] | > 30 | > 30 | 20 to 30 | > 30 |
| COc1ccc(C[C@H]2NC[C@H](O)[C@H]2OC(=O)NCc2cc(F)c(O)c(F)c2)cc1 [V191939, (2R,3S,4S)-4-hydroxy-2-[(4-methoxyphenyl)methyl]pyrrolidin-3-yl N-[(3,5-difluoro-4-hydroxyphenyl)methyl]carbamate] | 10 to 20 | < 10 | < 10 | 10 to 20 |
| O=C(NCCC1CCNCC1)O[C@@H]1[C@@H](O)CN[C@@H]1Cc1ccc(-c2cncs2)cc1 [V192112, (2R,3S,4S)-4-hydroxy-2-{[4-(1,3-thiazol-5-yl)phenyl]methyl}pyrrolidin-3-yl N-[2-(piperidin-4-yl)ethyl]carbamate] | < 10 | < 10 | < 10 | < 10 |
| O=C(NCc1ccc2c(c1)CCNC2)O[C@@H]1[C@@H](O)CN[C@@H]1Cc1ccc(-c2ccc(C(F)(F)F)cc2)cc1 [V192058, (2R,3S,4S)-4-hydroxy-2-{[4′-(trifluoromethyl)-[1,1′-biphenyl]-4-yl]methyl}pyrrolidin-3-yl N-(1,2,3,4-tetrahydroisoquinolin-6-ylmethyl)carbamate] | > 30 | > 30 | 20 to 30 | > 30 |
| O=C(NCC1CC1)O[C@@H]1[C@@H](O)CN[C@@H]1Cc1ccc(-c2cnco2)cc1 [V192262, (2R,3S,4S)-4-hydroxy-2-{[4-(1,3-oxazol-5-yl)phenyl]methyl}pyrrolidin-3-yl N-(cyclopropylmethyl)carbamate] | < 10 | < 10 | < 10 | < 10 |
| O=C(NCc1ccccc1)O[C@@H]1[C@@H](O)CN[C@@H]1Cn1cccn1 [V188209, (2R,3S,4S)-4-hydroxy-2-(pyrazol-1-ylmethyl)pyrrolidin-3-yl N-benzylcarbamate] | > 30 | > 30 | > 30 | > 30 |
| COc1ccc(C[C@H]2NC[C@H](O)[C@H]2OC(=O)NCc2ccnc(N3CC(O)C3)c2)cc1 [V192067, (2R,3S,4S)-4-hydroxy-2-(4-methoxybenzyl)pyrrolidin-3-yl ((2-(3-hydroxyazetidin-1-yl)pyridin-4-yl)methyl)carbamate] | < 10 | < 10 | 10 to 20 | < 10 |
| O=C(NCc1cccc(F)c1)O[C@@H]1[C@@H](O)CN[C@@H]1Cc1ccc(-c2ccc3ncsc3c2)cc1 [V192103, (2R,3S,4S)-2-{[4-(1,3-benzothiazol-6-yl)phenyl]methyl}-4-hydroxypyrrolidin-3-yl N-[(3-fluorophenyl)methyl]carbamate] | 10 to 20 | < 10 | < 10 | < 10 |
| COc1ccc(C[C@H]2NC[C@H](O)[C@H]2OC(=O)NCc2ccnc(N3CCC3)n2)cc1 [V192073, (2R,3S,4S)-4-hydroxy-2-[(4-methoxyphenyl)methyl]pyrrolidin-3-yl N-{[2-(azetidin-1-yl)pyrimidin-4-yl]methyl}carbamate] | < 10 | < 10 | < 10 | < 10 |
| O=C(NCc1ccnc(N2CCC2)c1)O[C@@H]1[C@@H](O)CN[C@@H]1Cc1ccc(-c2ccc(C(F)(F)F)cc2)cc1 [V192071, (2R,3S,4S)-4-hydroxy-2-((4′-(trifluoromethyl)-[1,1′-biphenyl]-4-yl)methyl)pyrrolidin-3-yl ((2-(azetidin-1-yl)pyridin-4-yl)methyl)carbamate] | > 30 | 20 to 30 | 20 to 30 | 20 to 30 |
